{"source": "patent USRE31617E", "about": "“Optionally substituted 1,2,3,5-tetrahydroimidezo(2,1-b)-quinazolin-2-ones and 6(H)-1,2,3,4-tetrahydropyimido(2,1-b)quinazolin-2-ones” (Bristol-Myers Company, priority 1982, dated 1984)", "key": {"[1]": {"tested_on": "rats, dogs, cats and rabbits", "conditions": "prior art; cited from earlier work"}, "[2]": {"tested_on": "skin", "test": "Handling hazard observed in synthesis", "conditions": "observation in synthesis"}, "[3]": {"tested_on": "genetically hypertensive rats", "test": "Blood pressure change after oral dosing (intra-arterial cannula and transducer)", "format": "in vivo, rat", "conditions": "P.O. 50 mg./kg.; for change in vivo at 50 mg/kg: Rattus norvegicus, po, + increase, - decrease in b.p., tested as hydrochloride salts", "method": "The blood pressure of unanesthetized rats and dogs was measured directly by means of a transducer attached to an intra-arterial cannula and in anesthetized dogs by a mercury manometer attached to a carotid cannula.\nThe compounds of the instant invention were tested as the hydrochloride salts by the above method in genetically hypertensive rats in doses of 50 mg./kg. orally."}}}
{"molecule": "c1ccc2c(c1)CN1CCNC1=N2", "values": [{"measurement": "antihypertensive activity", "setting": "[1]", "result": "potent antihypertensive activity"}]}
{"molecule": "Cc1cccc([N+](=O)[O-])c1CCl", "note": "[2-Methyl-6-nitrobenzyl chloride]", "values": [{"measurement": "lachrymator and skin irritant", "setting": "[2]", "result": "strong lachrymator and skin irritant"}]}
{"molecule": "O=C1CCN2Cc3cc(Br)ccc3N=C2N1", "note": "[Compound 21, 8-Bromo-6-[H]-1,2,3,4-tetrahydropyrimido[2,1-b]quinazolin-2-one]", "values": [{"measurement": "Blood Pressure % Change Rats column: toxicity in words", "setting": "[3]", "result": "Toxic"}]}
{"molecule": "COc1cccc2c1CN1CCC(=O)NC1=N2", "note": "[Compound 25]", "values": [{"measurement": "change in vivo at 50 mg/kg", "setting": "[3]", "result": "5 ± 3", "unit": "%"}]}
{"molecule": "COc1ccc2c(c1)CN1CCC(=O)NC1=N2", "note": "[Compound 26]", "values": [{"measurement": "change in vivo at 50 mg/kg", "setting": "[3]", "result": "19 ± 6", "unit": "%"}]}
{"molecule": "COc1cccc2c1N=C1NC(=O)CCN1C2", "note": "[Compound 27]", "values": [{"measurement": "change in vivo at 50 mg/kg", "setting": "[3]", "result": "-1 ± 4", "unit": "%"}]}
{"molecule": "COc1cc2c(cc1OC)N=C1NC(=O)CCN1C2", "note": "[Compound 28]", "values": [{"measurement": "change in vivo at 50 mg/kg", "setting": "[3]", "result": "-7 ± 2", "unit": "%"}]}
